Assay results as given in patent US11666570B2, “Diagnosis and regulation of epidermal differentiation and cancer cell activity” (The Board of Trustees of the Leland Stanford Junior …, priority 2019, dated 2023).
Residues, ends and D or L forms follow the SMILES beside them. *: point of attachment. Cbz = O=C(OCc1ccccc1)*

What was measured:
Assay type in all cases: cell-based
RET [1] = molecular target: T1, RET (Homo sapiens, UniProt P07949); assay: RET phosphorylation at Y1062 in non-transformed human skin organoids (Western blot); conditions: non-transformed human skin organoids grown 7 days on dermis, BLU-667 15 nM vs DMSO
T1 construct: endogenous in cells; host or cells: human skin organoids from primary human keratinocytes seeded on devitalized human dermis
T1 sequence (P07949 29-1114): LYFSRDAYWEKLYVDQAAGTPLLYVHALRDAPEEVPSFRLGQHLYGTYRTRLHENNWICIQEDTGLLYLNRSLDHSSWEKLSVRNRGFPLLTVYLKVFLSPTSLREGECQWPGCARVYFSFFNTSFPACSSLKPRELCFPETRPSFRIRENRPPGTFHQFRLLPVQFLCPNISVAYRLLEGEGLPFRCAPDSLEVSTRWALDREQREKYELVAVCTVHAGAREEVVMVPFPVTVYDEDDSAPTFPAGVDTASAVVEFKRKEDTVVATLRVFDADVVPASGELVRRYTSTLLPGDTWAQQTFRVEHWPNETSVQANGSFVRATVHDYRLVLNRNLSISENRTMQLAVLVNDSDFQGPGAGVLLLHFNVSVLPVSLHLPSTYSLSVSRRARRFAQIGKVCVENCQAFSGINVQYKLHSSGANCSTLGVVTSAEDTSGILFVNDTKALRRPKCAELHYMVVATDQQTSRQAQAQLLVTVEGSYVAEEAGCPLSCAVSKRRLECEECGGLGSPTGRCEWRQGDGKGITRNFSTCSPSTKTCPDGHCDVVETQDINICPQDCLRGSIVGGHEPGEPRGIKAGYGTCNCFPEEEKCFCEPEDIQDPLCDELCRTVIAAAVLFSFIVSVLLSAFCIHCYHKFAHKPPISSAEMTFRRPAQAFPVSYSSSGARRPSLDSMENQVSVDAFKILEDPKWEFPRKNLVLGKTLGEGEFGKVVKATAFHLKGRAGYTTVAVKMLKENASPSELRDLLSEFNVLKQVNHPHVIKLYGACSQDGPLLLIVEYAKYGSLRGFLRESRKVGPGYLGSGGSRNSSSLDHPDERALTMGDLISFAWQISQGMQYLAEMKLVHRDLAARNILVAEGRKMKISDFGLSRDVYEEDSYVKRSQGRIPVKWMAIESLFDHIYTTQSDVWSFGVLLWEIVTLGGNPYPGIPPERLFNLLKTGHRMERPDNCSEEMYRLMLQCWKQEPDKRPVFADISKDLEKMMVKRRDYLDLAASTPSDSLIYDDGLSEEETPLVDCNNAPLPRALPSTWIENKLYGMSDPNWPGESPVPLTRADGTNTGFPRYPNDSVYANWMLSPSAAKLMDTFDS
From the text: (§1) As loss of differentiation may be coupled to other cancer-enabling behaviors, we next considered the therapeutic implications of aberrant RET activation in SCC. […] We next used MAB21L4-intact or MAB21L4-ablated primary human keratinocytes to generate skin organoids programmed to undergo invasive neoplasia by oncogenic Ras and Cdk4. These neoplastic tissues were maintained in culture medium containing BLU-667 to investigate the contribution of RET to SCC development.
Human Skin Organoids and Skin Xenografts Generation of human skin organoids was performed as previously described. […] To generate organotypic invasive epidermal neoplasia, devitalized human dermis was populated with human primary fibroblasts at least 1 week prior to keratinocyte seeding. Keratinocytes were transduced with oncogenic HRas as well as Cdk4 and seeded onto fibroblast-containing dermis. Neoplastic tissues were harvested for analysis up to 14 days post-seeding.
Western Blotting Cells and organoids were both lysed in RIPA buffer (Thermo Fisher Scientific) supplemented with phosphatase inhibitor and protease inhibitor cocktails (Sigma-Aldrich). For human skin organoids, the epidermis was separated from the dermis, immersed in RIPA buffer, and subjected to 4 cycles of disruption using the gentleMACS Dissociator (Miltenyi Biotec). […]

human skin organoids = assay: Stratification and epidermal thickness of organotypic human epidermis under BLU-667 (immunofluorescence); conditions: vs vehicle (DMSO)
From the text: as §1
(§2) To test this, we assessed neoplastic invasion in human skin organoids with BLU-667 added to the culture medium after early malignant transformation occurred. […] Human skin tissues undergoing malignant transformation by enforced expression of oncogenic Ras and Cdk4 were then subjected to BLU-667 treatment following the onset of early neoplastic invasion.
Human Skin Organoids and Skin Xenografts Generation of human skin organoids was performed as previously described. Briefly, 1×10^6 keratinocytes were seeded onto a 1 cm^2 section of devitalized human dermis and cultured at the air-liquid interface for up to 6 days for differentiation studies. To generate organotypic invasive epidermal neoplasia, devitalized human dermis was populated with human primary fibroblasts at least 1 week prior to keratinocyte seeding. Keratinocytes were transduced with oncogenic HRas as well as Cdk4 and seeded onto fibroblast-containing dermis. […]

[2] = system: oncogenic Ras-transformed human skin organoids; assay: Neoplastic invasion in human skin organoids transformed by oncogenic Ras and Cdk4
From the text: as §1, §2
(§3) Human Skin Organoids and Skin Xenografts Generation of human skin organoids was performed as previously described. Briefly, 1×10^6 keratinocytes were seeded onto a 1 cm^2 section of devitalized human dermis and cultured at the air-liquid interface for up to 6 days for differentiation studies. To generate organotypic invasive epidermal neoplasia, devitalized human dermis was populated with human primary fibroblasts at least 1 week prior to keratinocyte seeding. Keratinocytes were transduced with oncogenic HRas as well as Cdk4 and seeded onto fibroblast-containing dermis. Neoplastic tissues were harvested for analysis up to 14 days post-seeding.
Immunofluorescence Human skin organoids were embedded in Optimal Cutting Temperature (OCT) compound (Sakura Finetek) and 7 μm tissue sections were mounted onto polylysine slides (Thermo Scientific). Tissue cryosections were fixed in 100% methanol at −20° C. for 10 min and subsequently permeabilized by incubation with 0.1% Triton X-100 (Sigma-Aldrich) in PBS. The tissues were then incubated for 30 minutes at room temperature with blocking buffer (horse serum diluted 1:10 in PBS) and then for 1 hour with primary antibodies diluted in 0.05% Triton X-100 (Sigma-Aldrich) and 1:100 horse serum in PBS. […]
Images of several zstacks were acquired and the maximum intensity projection image was generated by using the Fiji-ImageJ package. Invasion index was calculated as integrated density of the Keratin 5 staining underneath the basement membrane divided by the length of the basement membrane. Integrated density and basement membrane length were both analyzed using the Fiji-ImageJ package. The invasion depth was calculated as the distance between the basement membrane and the most distant invading cell in each field of view analyzed. The distance between the basement membrane and the most distant invading cell was analyzed in 3 areas of each field of view using the Fiji-ImageJ package and was averaged. […]

RET [3] = assay: RET expression in normal human skin organoids treated with proteasome inhibitor (Western blot); conditions: normal skin organoids grown 3 days on dermis, MG132 20 μM for 12 hrs vs DMSO
From the text: Given the proximity of CacyBP and RET, we wondered whether RET stability in the skin might be regulated by ubiquitination. Fluorescent PLA signal generated by RET and ubiquitin proximity was abolished in MAB21L4-ablated epidermis using two independent sgRNAs (FIG. 5f,g). […] Loss of MAB21L4, such as occurs in cancer, would stabilize RET by preventing its Siah1-mediated degradation and may explain RET upregulation in SCC.
as §3
Western Blotting Cells and organoids were both lysed in RIPA buffer (Thermo Fisher Scientific) supplemented with phosphatase inhibitor and protease inhibitor cocktails (Sigma-Aldrich). […]

[4] = MAB21L4-intact or MAB21L4-ablated Ras/Cdk4 organoids, 7 days in medium containing BLU-667 15 nM
[5] = Ras/Cdk4 organoids, BLU-667 15 nM initiated on day 7 after early invasion, analysed day 14, vs vehicle

SMILES	RET phosphorylation at Y1062 (suppression of RET signaling) (RET [1])	epidermal stratification and thickness (human skin organoids; late-onset treatment: BLU-667 15 nM initiated on day 7, 14 days of growth)	stratification and epidermal thickness (human skin organoids; organoids cultured in continuous presence of BLU-667 15 nM, 7 days)	basement membrane degradation [2, 4]	neoplastic invasion (invasion index) [2, 4]	keratinocytes below the basement membrane (invasion index), established invasion [2, 5]	tumor infiltration depth (invasion depth), established invasion [2, 5]	RET expression (RET [3])
CO[C@]1(C(=O)N[C@@H](C)c2ccc(-n3cc(F)cn3)nc2)CC[C@H](c2nc(C)cc(Nc3cc(C)[nH]n3)n2)CC1 [BLU-667]	reduction in RET phosphorylation at Y1062	did not adversely affect epidermal stratification and thickness	did not differ substantially from vehicle controls	prevented basement membrane degradation	suppressed invasion accelerated by MAB21L4 loss	fewer keratinocytes below the basement membrane	reduction in tumor infiltration depth	
CC(C)C[C@@H](C=O)NC(=O)[C@H](CC(C)C)NC(=O)[C@H](CC(C)C)NC(=O)OCc1ccccc1 [MG132] (Cbz-Leu-Leu-Leu-aldehyde)								RET accumulation
